Assay: oral application of conjugated fatty acids: appetite, satiety and food intake
Assay type: in vivo
Settings: for appetite-reducing effect compared with other CLA isomers and non-conjugated linoleic acid: comparison of isomers

Row | Molecule | effect on appetite, satiety and food intake (oral application) | appetite-reducing effect compared with other CLA isomers and non-conjugated linoleic acid | appetite-reducing effect compared with other CLA isomers and non-conjugated linoleic acid (listed as cis-9,trans-11 isomer of conjugated linoleic acid)
1 | conjugated linoleic acid [CLA] | reduction of appetite | – | –
2 | CCCCCC/C=C/C=C\CCCCCCCC(=O)O (single isomer, unassigned) [cis-9,trans-11 CLA-isomer, cis-9,trans-11 isomer of conjugated linoleic acid] | – | most efficacious in inhibiting appetite | more pronounced
